Assay [1] has as its system colon cancer cells (HCT116). Kind of assay: Cancer cell line growth inhibition, Sulforhodamine B assay, HCT116. The assay is classed as cell-based. To be noted: Homo sapiens, HCT-116, 120 h, HCT116, 5 days, SRB, read-out: Cancer Cell Line GI50 Range HCT116. The procedure, abridged: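 GI50 is calculated from growth inhibition relative to DMSO controls, using TCA-fixed, SRB-stained protein mass read at 570 nm. Compound, 10 nM–50 μM final in 10% FBS DMEM, was applied for 5 days to HCT116 cells that had been plated 24 h before at 1000–4000/well.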

Another assay concerns the target T1, human TTK (Homo sapiens, UniProt P33981).
T1 construct: Active TTK was purchased from Invitrogen as an amino terminal GST fusion of full length human TTK; purchased Invitrogen
T1 sequence (P33981 1-857): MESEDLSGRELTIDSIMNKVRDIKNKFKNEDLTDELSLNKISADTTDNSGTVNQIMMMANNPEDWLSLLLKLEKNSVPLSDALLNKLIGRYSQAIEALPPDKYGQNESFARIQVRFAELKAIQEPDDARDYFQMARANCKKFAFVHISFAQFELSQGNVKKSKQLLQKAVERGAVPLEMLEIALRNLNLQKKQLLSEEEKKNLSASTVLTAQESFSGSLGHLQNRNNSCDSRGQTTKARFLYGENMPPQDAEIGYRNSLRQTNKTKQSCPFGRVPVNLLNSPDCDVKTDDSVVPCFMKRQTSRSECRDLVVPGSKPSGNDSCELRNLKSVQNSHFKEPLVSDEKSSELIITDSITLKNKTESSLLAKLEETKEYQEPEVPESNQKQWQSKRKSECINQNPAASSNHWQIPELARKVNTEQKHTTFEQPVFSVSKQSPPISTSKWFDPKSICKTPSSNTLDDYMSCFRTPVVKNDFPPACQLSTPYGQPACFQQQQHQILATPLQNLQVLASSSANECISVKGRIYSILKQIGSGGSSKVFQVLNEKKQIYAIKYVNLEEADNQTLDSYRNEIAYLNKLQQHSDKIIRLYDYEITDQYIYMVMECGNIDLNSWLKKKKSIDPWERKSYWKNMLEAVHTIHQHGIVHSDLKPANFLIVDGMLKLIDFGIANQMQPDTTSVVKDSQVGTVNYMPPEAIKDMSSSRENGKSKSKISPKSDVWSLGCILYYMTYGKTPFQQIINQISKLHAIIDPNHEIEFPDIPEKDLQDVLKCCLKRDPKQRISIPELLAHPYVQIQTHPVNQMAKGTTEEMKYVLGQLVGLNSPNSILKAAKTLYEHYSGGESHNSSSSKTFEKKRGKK
Kind of assay: TTK inhibition assay (indirect ELISA). The assay is classed as biochemical. Conditions: 16 μM ATP (asterisk), read-out: TTK IC50 Range. The gist of the method:
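Activity detected by indirect ELISA after compounds sat with full-length GST-TTK for 5 min prior to starting the reaction with ATP. IC50 came from a four-parameter logistic curve of % inhibition, calculated against background and uninhibited control wells.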
On the technique in general: ELISA stands for enzyme-linked immunosorbent assay.

Assay [2] has as its system Ovarian 2393A tumor initiating cells. Put plainly: Tumor-initiating cell growth inhibition, Alamar Blue assay, ovarian TICs. Conditions: 144 h; Table 1; ovarian TICs, 6 days, Alamar Blue; read-out: Tumor Initiating Cell GI50 Range Ovarian 2393A. The assay is classed as cell-based. The procedure, abridged: (§1)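 Colon TICs (4,000/well, non-TC plates) and ovarian TICs (1,000/well, TC plates) kept in serum-free DMEM:F12 with B-27, heparin, bFGF and EGF. Compound added after 24 h at 0.1% DMSO, then 9 days (colon) or 6 days (ovarian) at 37° C. GI50 from Alamar Blue fluorescence (ex 544/em 590) after 4 h.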

Assay [3] relates to breast cancer cells (MDA-MB-468). Kind of assay: Cancer cell line growth inhibition, Sulforhodamine B assay, MDA-MB-468. The class given is cell-based. Conditions: Homo sapiens, MDA-MB-468, 120 h, Table 1; MDA-MB-468, 5 days, SRB; read-out: Cancer Cell Line GI50 Range MDA-MB-468. The procedure, abridged:
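Sulforhodamine B staining (TCA-fixed, read at 570 nm) estimates cell mass after 5-day compound treatment of MDA-MB-468 cells, final concentrations 10 nM to 50 μM in 10% FBS DMEM. GI50 derived from growth inhibition versus DMSO controls.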
Background: The SRB assay estimates cell density from bound dye.

For assay [4], the system named is Colon 12 tumor initiating cells. Kind of assay: Tumor-initiating cell growth inhibition, Alamar Blue assay, colon TICs. The assay is classed as cell-based. Conditions: 216 h; Table 1; colon TICs, 9 days, Alamar Blue; read-out: Tumor Initiating Cell GI50 Range Colon 12. The procedure, abridged:
as §1
In general terms: The colour change of resazurin is a common sign of viable cells or microbes.

For assay [5], the system named is ovarian cancer cells (PA-1). Kind of assay: Cancer cell line growth inhibition, Sulforhodamine B assay, PA-1. The class given is cell-based. To be noted: 120 h, PA-1, 5 days, SRB, read-out: Cancer Cell Line GI50 Range PA-1. The procedure: (§2) Breast cancer cells (MDA-MB-231 and MDA-MB-468), colon cancer cells (HCT116) and ovarian cancer cells (PA-1 and OVCAR-3) were seeded (1000 to 4000 in 80 μl per well depending on the cell growth rate) into 96 well plates 24 hours before compound overlay. Compounds were prepared as 10 mM stock solutions in 100% DMSO which were diluted with DMEM (Dulbecco's Modified Eagle's Medium) cell growth Medium (Invitrogen, Burlington, ON, Canada) containing 10% FBS (Fetal Bovine Serum) to concentrations ranging from 50 nM to 250 μM. Aliquots (20 μl) from each concentration were overlaid to 80 μl of the pre-seeded cells in the 96 well plates to make final concentrations of 10 nM to 50 μM. The cells were cultured for 5 days before the Sulforhodamine B assay (SRB) was performed to determine the compound's cell growth inhibition activity.
(§3) Sulforhodamine B (purchased from Sigma, Oakville, ON, Canada) is a water-soluble dye that binds to the basic amino acids of the cellular proteins. Thus, colorimetric measurement of the bound dye provides an estimate of the total protein mass that is related to the cell number. the cells are fixed in situ by gently aspirating off the culture media and adding 50 μl ice cold 10% Trichloroacetic Acid (TCA) per well and incubate at 4° C. for 30-60 min, The plates are washed with H2O five times and allowed to air dry for 5 min. Addition of 50 μl 0.4% (w/v) SRB solution in 1% (v/v) acetic acid to each well and incubation for 30 min at RT completes the staining reaction. Following staining, plates are washed four times with 1% acetic acid to remove unbound dye and then allowed to air dry for 5 min. The stain is solubilized with 100 μl of 10 mM Tris pH 10.5 per well. Absorbance is read at 570 nm.
(§4) The percentage (%) of relative growth inhibition was calculated by comparing to DMSO treated only cells (100%). GI50's were determined for compounds with cytotoxic activity. The GI50 was calculated using GraphPad PRISM software (GraphPad Software, Inc., San Diego, Calif., USA).
In Table 1 below, GI50 value ranges for compound examples against breast cancer cell lines (MDA-MB-468), colon cancer cell lines (HCT116) and ovarian cancer cell lines (PA-1) are given.
(§5) In Table 2 below, GI50 value ranges for compound examples against breast cancer cell lines (MDA-MB-231), colon cancer cell lines (HCT116) and ovarian cancer cell lines (PA-1) are given.

The test system of assay [6] is breast cancer cells (MDA-MB-231). Put plainly: Cancer cell line growth inhibition, Sulforhodamine B assay, MDA-MB-231. The assay is classed as cell-based. To be noted: Homo sapiens, 120 h; Table 2; MDA-MB-231, 5 days, SRB; read-out: Cancer Cell Line GI50 Range MDA-MB-231. On the procedure: as §2, §3, §4, §5

Structures are written as SMILES. pIC50: −log10 of the molar value. Read-outs that look alike come from different tables or passages of the source.

Usually GI50 stands for the concentration that inhibits growth by half. The pIC50 is −log10 of the IC50, conventionally taken in molar units. As to `Cc1cc(-c2cnn3c(NCC4CCOCC4)nc(NC4CCCC4)nc23)ccc1C(=O)NC1CC1` [Example A2, 4-(2-(Cyclopentylamino)-4-(((tetrahydro-2H-pyran-4-yl)methyl)amino)pyrazolo[1,5-a][1,3,5]triazin-8-yl)-N-cyclopropyl-2-methylbenzamide], the GI50 in assay [1] (Table 1) was 100 to 500 nM; in assay [2], 100 to 500 nM; in assay [3], 100 to 500 nM; in assay [4], at most 100 nM; in assay [5] (Table 1), at most 100 nM. Also, on human TTK (Table 1), the pIC50 was over 7.00.

Regarding `O=C(NC1CC1)c1ccc(-c2cnn3c(NCC4CCOCC4)nc(OC4CCOCC4)nc23)cc1Cl` [Example A14, 2-chloro-N-cyclopropyl-4-(4-(((tetrahydro-2H-pyran-4-yl)methyl)amino)-2-((tetrahydro-2H-pyran-4-yl)oxy)pyrazolo[1,5-a][1,3,5]triazin-8-yl)benzamide], the 50% growth inhibitory concentration (GI50) was 100 to 500 nM in assay [1] (Table 1); over 500 nM in assay [2]; over 500 nM in assay [3]; over 500 nM in assay [4]; 100 to 500 nM in assay [5] (Table 1). Also, the negative logarithm of the IC50 (pIC50) on human TTK (Table 1) was over 7.00.

With `Cc1cc(-c2cnn3c(NCC4CCOCC4)nc(Oc4ccccc4)nc23)ccc1C(=O)NC1CC1` [Example A3, N-cyclopropyl-2-methyl-4-(2-phenoxy-4-(((tetrahydro-2H-pyran-4-yl)methyl)amino)pyrazolo[1,5-a][1,3,5]triazin-8-yl)benzamide], the concentration for 50% growth inhibition (GI50) in assay [1] (Table 1) is at most 100 nM; in assay [2], 100 to 500 nM; in assay [3], at most 100 nM; in assay [4] it was at most 100 nM; in assay [5] (Table 1), at most 100 nM. On human TTK (Table 1), the pIC50 was over 7.00.

For the molecule `Cc1cc(-c2cnn3c(NCC(C)C)cc(Oc4cccnc4)nc23)ccc1C(=O)NC1CC1` [Example B25, N-cyclopropyl-4-(7-(isobutylamino)-5-(pyridin-3-yloxy)pyrazolo[1,5-a]pyrimidin-3-yl)-2-methylbenzamide], the GI50 in assay [1] (Table 2), in assay [6] and in assay [5] (Table 2) was at most 100 nM in each case. In addition, on human TTK (Table 2), the negative logarithm of the IC50 (pIC50) is over 7.00.

With `Cc1cc(-c2cnn3c(NCC4CCOCC4)cc(NC4CCCCC4)nc23)ccc1C(=O)NC1CC1` [Example B24, 4-(5-(cyclohexylamino)-7-(((tetrahydro-2H-pyran-4-yl)methyl)amino)pyrazolo[1,5-a]pyrimidin-3-yl)-N-cyclopropyl-2-methylbenzamide], the concentration for 50% growth inhibition (GI50) in assay [1] (Table 2), in assay [6] and in assay [5] (Table 2) was at most 100 nM in each case. The pIC50 at human TTK (Table 2) is over 7.00.

For `O=C(NC1CC1)c1ccc(-c2cnn3c(NCC4CCOCC4)nc(Oc4ccccc4)nc23)cc1Cl` [Example A4, 2-Chloro-N-cyclopropyl-4-(2-phenoxy-4-(((tetrahydro-2H-pyran-4-yl)methyl)amino)pyrazolo[1,5-a][1,3,5]triazin-8-yl)benzamide], the GI50 in assay [1] (Table 1) is 100 to 500 nM; in assay [2], 100 to 500 nM; in assay [3], 100 to 500 nM; in assay [4], at most 100 nM; in assay [5] (Table 1) it was 100 to 500 nM. Moreover, at human TTK (Table 1), the pIC50 is over 7.00.

As for `O=C(NC1CC1)c1ccc(-c2cnn3c(NCCN4CCOCC4)nc(Oc4ccccc4)nc23)cc1` [Example A7, N-cyclopropyl-4-(4-((2-morpholinoethyl)amino)-2-phenoxypyrazolo[1,5-a][1,3,5]triazin-8-yl)benzamide], the GI50 in assay [1] (Table 1) is over 500 nM; in assay [2], over 500 nM; in assay [3], over 500 nM; in assay [4], over 500 nM; in assay [5] (Table 1), 100 to 500 nM. For the same molecule, the negative-log IC50 (pIC50) on human TTK (Table 1) was over 7.00.

For the molecule `O=C(NC1CC1)c1ccc(-c2cnn3c(NCC4CCOCC4)nc(N4CCOCC4)nc23)cc1Cl` [Example A6, 2-chloro-N-cyclopropyl-4-(2-morpholino-4-(((tetrahydro-2H-pyran-4-yl)methyl)amino)pyrazolo[1,5-a][1,3,5]triazin-8-yl)benzamide], the GI50 in assay [1] (Table 1) is 100 to 500 nM; in assay [2] it was 100 to 500 nM; in assay [3], over 500 nM; in assay [4], 100 to 500 nM; in assay [5] (Table 1) it was at most 100 nM. Further, on human TTK (Table 1), the pIC50 is over 7.00.

Regarding `O=C(NC1CC1)c1ccc(-c2cnn3c(NCC4CCOCC4)nc(NC4CCCC4)nc23)cc1` [Example A15, 4-(2-(cyclopentylamino)-4-(((tetrahydro-2H-pyran-4-yl)methyl)amino)pyrazolo[1,5-a][1,3,5]triazin-8-yl)-N-cyclopropylbenzamide], the 50% growth inhibitory concentration (GI50) in assay [1] (Table 1) was 100 to 500 nM; in assay [2], 100 to 500 nM; in assay [3], over 500 nM; in assay [4], 100 to 500 nM; in assay [5] (Table 1) it was 100 to 500 nM. In addition, at human TTK (Table 1), the pIC50 is over 7.00.

For `O=C(NC1CC1)c1ccc(-c2cnn3c(NCC4CCOCC4)nc(OC4CCCC4)nc23)cc1Cl` [Example A5, 2-chloro-4-(2-(cyclopentyloxy)-4-(((tetrahydro-2H-pyran-4-yl)methyl)amino)pyrazolo[1,5-a][1,3,5]triazin-8-yl)-N-cyclopropylbenzamide], the GI50 was 100 to 500 nM in assay [1] (Table 1); over 500 nM in assay [2]; over 500 nM in assay [3]; 100 to 500 nM in assay [4]; 100 to 500 nM in assay [5] (Table 1). Besides, the negative logarithm of the IC50 (pIC50) on human TTK (Table 1) was over 7.00.

Source of the values: patent publication US9573954B2, “Pyrazolopyrimidine compounds” (University Health Network, priority 2012, dated 2017).
